Source: patent US6482802B1 (Endowment for Research in Human Biology, Inc., priority 1998, dated 2002)
Several values for one entry are separate records, joined by “and”; a condition that tells them apart may be missing. Equal entries are not always repeated.

Experiments:
Human angiogenin = biological target: T1, Human angiogenin (Homo sapiens, UniProt P03950); assay: Ribonucleolytic activity of angiogenin, yeast tRNA substrate; type: biochemical
T1 construct: made in house; host or cells: Escherichia coli
T1 sequence (P03950 with tags, fused parts or gaps): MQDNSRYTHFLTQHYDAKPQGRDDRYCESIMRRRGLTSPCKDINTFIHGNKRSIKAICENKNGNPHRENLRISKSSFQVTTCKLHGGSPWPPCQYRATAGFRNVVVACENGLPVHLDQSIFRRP
Description: After incubation for 2 hr at 37° C., […] of 3.4% ice-cold perchloric acid was added, the mixture was vortexed, kept on ice for […] and centrifuged at 15,000×g for 10 min at 4° C. The absorbance of the supernatants was measured at 260 nm.

[1] = system: nuclear translocation of aFGF in HUVE cells; assay: Nuclear translocation of 125I-aFGF in HUVE cells; type: cell-based, human; conditions: for aFGF Counts (nuclear fraction): 125I-aFGF 50 ng/ml, 0 μM: 7800 ± 100
Description: (§1) Inhibition of nuclear translocation of angiogenic factors in HUVE cells was performed in the following manner. […] The cell pellet was washed once with PBS and lysed with 0.5% triton X-100 in PBS. […] Radioactivity in the nuclear fraction was determined with a gamma counter.

[2] = system: nuclear translocation of EGF in HUVE cells; assay: Nuclear translocation of 125I-EGF in HUVE cells; type: cell-based, human; conditions: for EGF Counts (nuclear fraction): 125I-EGF 50 ng/ml, 0 μM: 140 ± 20
Description: as §1

[3] = system: chorioallantoic membrane (CAM) of chick embryos; assay: CAM assay, aFGF-induced angiogenesis; type: in vivo; conditions: for % Positive: aFGF alone 73, water 21
Description: (§2) Angiogenesis was measured on the CAM by the method of Knighton et al. (Knighton et al., 1977, Br. J. Cancer 35:347-356) essentially as described (Fett et al., 1985, Biochemistry 24:5480-5486). Fertilized chicken eggs were kept at 18° C. for 2 days and then incubated in a humidified environment at 37° C. for 3 days. Albumin was aspirated from the embryos and after 24 hours, a “window” was cut through the shell and covered with clear tape. […] After 48-68 hours at 37° C., the growth of blood vessels was observed microscopically and recorded as either positive or negative. A positive response (i.e., an angiogenic response) has a typical “spokewheel” appearance.

[4] = system: chorioallantoic membrane (CAM) of chick embryos; assay: CAM assay, bFGF-induced angiogenesis; type: in vivo; conditions: for % Positive: bFGF alone 78, water 21
Description: as §2

[5] = system: chorioallantoic membrane (CAM) of chick embryos; assay: CAM assay, neomycin alone without angiogenic factor; type: in vivo
Description: as §2

[6] = system: MDA-MB-435 human breast tumor cells; type: in vivo
Description: MDA-MA-435 human breast tumor cells, which are estrogen receptor negative, were injected directly into the mammary fat pad of athymic mice. Age-matched athymic female mice were assigned to treatment groups of 8 mice each and anesthetized with ketamine (212 mg/kg body weight) and xylazine (21.2 mg/kg body weight) given intraperitoneally and allowed to stabilize under anesthesia for 15 min. A heating pad was used to maintain their body temperature throughout the procedure to minimize stress. Betadine followed by 70% alcohol was swabbed onto the skin of the left lateral thorax. An incision of 6 mm in length was made through the skin in the area of the left lateral thorax behind the left front leg and the mammary fat pad was exposed by using gentle pressure with two fingers to separate the skin at the incision site. MDA-MB-435 human breast tumor cells were harvested by trypsinization, washed in HBSS, counted using trypan blue exclusion to determine cell viability, and 10,000 cells in a total volume of 20 μl were injected into the fat pad using a 27 gauge needle. The incision was closed with 2 drops of Vetbond veterinarian tissue adhesive and the mouse was allowed to recover on the heating pad before returning to its cage. […] Mice were examined daily for tumor growth by gentle palpation of the lateral left thorax in the general area of the injection.

[7] = system: PC-3 human prostate tumor cells
Description: Mice were examined daily by palpation for the first sign of tumor appearance at which time tumor size was estimated twice weekly by caliper measurements (longest perpendicular length and width).

## neomycin
Human angiogenin; neomycin 5 μM
  ribonucleolytic activity of angiogenin, % of control: 87%
Human angiogenin; neomycin 10 μM
  ribonucleolytic activity of angiogenin, % of control: 105%
Human angiogenin; neomycin 50 μM
  ribonucleolytic activity of angiogenin, % of control: 88%
[1]; neomycin 10 μM
  aFGF % Inhib. of nuclear translocation: 15%
  aFGF Counts (nuclear fraction): 6600 ± 100 cpm
[1]; neomycin 50 μM
  aFGF % Inhib. of nuclear translocation: 26%
  aFGF Counts (nuclear fraction): 5800 ± 100 cpm
[1]; neomycin 100 μM
  aFGF % Inhib. of nuclear translocation: 32%
  aFGF Counts (nuclear fraction): 5300 ± 100 cpm
[1]; neomycin 150 μM
  aFGF % Inhib. of nuclear translocation: 38%
  aFGF Counts (nuclear fraction): 4800 ± 100 cpm
[1]; neomycin 200 μM
  aFGF % Inhib. of nuclear translocation: 43%
  aFGF Counts (nuclear fraction): 4500 ± 200 cpm
[2]; neomycin 10 μM
  EGF % Inhib. of nuclear translocation: 0%
  EGF Counts (nuclear fraction): 140 ± 20 cpm
[2]; neomycin 50 μM
  EGF % Inhib. of nuclear translocation: 0%
  EGF Counts (nuclear fraction): 140 ± 20 cpm
[2]; neomycin 100 μM
  EGF % Inhib. of nuclear translocation: 7%
  EGF Counts (nuclear fraction): 130 ± 30 cpm
[2]; neomycin 150 μM
  EGF % Inhib. of nuclear translocation: 14%
  EGF Counts (nuclear fraction): 120 ± 10 cpm
[2]; neomycin 200 μM
  EGF % Inhib. of nuclear translocation: 29%
  EGF Counts (nuclear fraction): 100 ± 20 cpm
[3]; aFGF 10 ng + neomycin 20 ng
  % Inhibition of angiogenic activity: 71%
  % Positive: 36%
[3]; aFGF 10 ng + neomycin 20 ng, 14 total eggs
  Positive eggs: 5
[3]; aFGF 10 ng + neomycin 200 ng
  % Inhibition of angiogenic activity: 75%
  % Positive: 32% and 34%
[3]; aFGF 10 ng + neomycin 200 ng, 47 total eggs
  Positive eggs: 16
[3]; in vivo
  dosage that inhibited aFGF-induced angiogenesis: about 200 ng per embryo
[4]; bFGF 10 ng + neomycin 20 ng
  % Inhibition of angiogenic activity: 58%
  % Positive: 45%
[4]; bFGF 10 ng + neomycin 20 ng, 33 total eggs
  Positive eggs: 15
[4]; bFGF 10 ng + neomycin 200 ng
  % Inhibition of angiogenic activity: 81%
  % Positive: 34% and 32%
[4]; bFGF 10 ng + neomycin 200 ng, 38 total eggs
  Positive eggs: 12
[4]; in vivo
  dosage that inhibited bFGF-induced angiogenesis: about 200 ng per embryo
[5]; about 5 to about 50 μM (20 to 200 ng in 5 μl)
  induction of angiogenesis by neomycin itself: does not induce angiogenesis
[5]; neomycin 20 ng alone, 50 total eggs
  Positive eggs: 10
[5]; neomycin 20 ng alone, water 20-21
  % Positive: 20%
[5]; neomycin 200 ng alone, 29 total eggs
  Positive eggs: 6
[5]; neomycin 200 ng alone, water 20-21
  % Positive: 21%
[5]; neomycin 1000 ng alone, 13 total eggs
  Positive eggs: 3
[5]; neomycin 1000 ng alone, water 21
  % Positive: 23%
[6]; 60 mg/kg body weight i.p., daily 20 days, then 4 times per week 42 days, 8 mice
  establishment of MDA-MB-435 human breast tumors: completely inhibited the establishment
[6]; 60 mg/kg i.p., all 8 control mice developed tumors
  mice with tumors by day 56: none of the mice had tumors
[7]; 20 mg/kg body weight s.c., 6 times per week 20 days, then 4 times per week 30 days, 6 mice
  mice in which appearance of PC-3 tumors was prevented: 50%
[7]; 20 mg/kg s.c., control 2 of 6 with tumor
  tumor status of treated mice by day 18: all of the mice in the neomycin-treated group remained tumor-free
[7]; 20 mg/kg s.c., control 100%
  animals that had developed tumors as of day 42: 50%
